Measurements reported in US11918587B2, “Treatment of cancer with a RAF inhibitor” (Kinnate Biopharma Inc., priority 2021, dated 2024).
Read-outs that look alike come from different tables or passages of the source.

How the values were obtained:
pERK in NCI-H2087 cells = assay: cells; conditions: Homo sapiens
[1] = plasma exposure in mice bearing A-375 tumors; format: in vivo; conditions: athymic nude, mouse, 15-60 mg/kg PO QD, free base, 24-hour period following the last dose, read-out: systemic plasma exposures (AUClast)
pERK in OV-90 cells = assay: cells; conditions: Homo sapiens, OV-90, 1 h, read-out: pERK EC50
pERK in NCI-H2405 cells = assay: cells; conditions: Homo sapiens, NCI-H2405, 1 h, read-out: pERK EC50
pERK in IHH-4 cells = assay: cells
pERK in CHL-1 cells = assay: cells; conditions: Homo sapiens, CHL-1, 1 h, read-out: pERK EC50
[2] = mouse, in vivo
[3] = tolerability / body weight in A-375 xenograft study
Procedure: Mean tumor volumes and body weights are plotted, respectively; error bars denote standard error of mean. Percent change in tumor volume was calculated using the following formula: (TVf−TV0)/TV0×100%; where TVf=final tumor volume (at end of treatment) and TV0=initial tumor volume (at beginning of treatment).

pERK in 8505C cells = assay: cells; conditions: Homo sapiens
pERK in HMV-II cells = assay: cells
pERK in Hs 294T cells = assay: cells; conditions: Homo sapiens
[4] = plasma exposure in WM3629 BID combination study (Example 6); conditions: athymic BALB/c nude, mouse, oral, 3 mg/kg
[5] = system: A-375, BxPC-3, WM3629 xenografts; conditions: doses up to 60 mg/kg per day
[6] = plasma exposure in mice bearing BxPC-3 and WM3629 xenografts; format: in vivo; conditions: athymic nude, mouse, po, sulfate salt form, 24-hour period following the last dose, read-out: systemic plasma exposures (AUClast)
[7] = plasma exposure in SK-MEL-2 xenograft study; conditions: mouse, oral
in vivo = conditions: athymic nude, mouse, plasma, oral
[8] = mouse, in vivo, po
Procedure: For routine monitoring, all study animals were monitored for not only tumor growth but also any abnormalities of behavior and appearance such as mobility, food and water consumption, body weight, eye appearance, and any other abnormal observations. Any mortality and/or abnormal clinical signs were recorded. Body weights of all animals were measured and recorded every other day throughout the study. The measurement of tumor size was conducted with calipers and recorded three times during the first week and twice weekly during the second and third weeks. The TV (mm^3) was estimated using the formula: TV=a×b^2/2, where “a” and “b” are long and short diameters of a tumor, respectively.

pERK in DBTRG-05MG cells = assay: cells; conditions: Homo sapiens
pERK in SK-MEL-28 cells = assay: cells; conditions: Homo sapiens
pERK in Calu-6 cells = assay: cells; conditions: Homo sapiens
pERK in COLO 800 cells = assay: cells; conditions: Homo sapiens
pERK in SK-MEL-2 cells = assay: cells; conditions: Homo sapiens
pERK in WM3629 cells = assay: cells; conditions: Homo sapiens, WM3629, 1 h, read-out: pERK EC50
pERK in HCC1195 cells = assay: cells
pERK in AM-38 cells = assay: cells; conditions: Homo sapiens
[9] = system: WM3629 (NRAS mutant, Class III BRAF mutant) melanoma xenograft; assay: WM3629 melanoma xenograft, compound 1 with binimetinib BID (Example 6); format: in vivo, mouse
[10] = system: SK-MEL-2 human melanoma cells; assay: 7-day CellTiter-Glo growth assay with binimetinib combination and synergy analysis; format: cell-based; conditions: SK-MEL-2, 168 h
Procedure: SK-MEL-2 human melanoma cells were obtained from American Type Culture Collection and maintained in DMEM+10% FBS+1% penicillin/streptomycin. All cells were maintained in a humidified incubator at 37° C. with 5% carbon dioxide (CO2). […] Plates were removed from the incubator and equilibrated at room temperature for 15 minutes. Then, 100 μL of CellTiter-Glo (CTG) reagent was added into each well to be detected (at 1:1 to culture medium). The plates were kept at room temperature for 30 minutes followed by reading on a plate reader. […] Highest single agent (HSA), Bliss, and Loewe synergy models were assessed and utilized to find the most synergistic area score, where scores >10 indicate that the interaction between the two drugs is likely to be synergistic.

pERK in BxPC-3 cells = assay: cells; conditions: Homo sapiens, BXPC-3, 1 h, read-out: pERK EC50
pERK in IPC-298 cells = assay: cells; conditions: Homo sapiens
pERK in NCI-H1666 cells = assay: cells; conditions: Homo sapiens
[11] = system: SK-MEL-2 (NRAS Q61R mutant) melanoma xenograft; assay: SK-MEL-2 melanoma xenograft, Compound 1 with binimetinib; format: in vivo, mouse
pERK in SK-MEL-30 cells = assay: cells; conditions: Homo sapiens
[12] = system: NCI-H2405 (Class II BRAF mutant) NSCLC xenograft
pERK in A-375 cells = assay: cells; conditions: Homo sapiens, A-375, 1 h, read-out: pERK EC50
pERK in MIA PaCa-2 cells = assay: cells; conditions: Homo sapiens, MIA PaCa-2, 1 h, read-out: pERK EC50
pERK in CAL-12T cells = assay: cells; conditions: Homo sapiens, 1 h, read-out: pERK EC50
[13] = system: A-375 (Class I BRAF V600E) melanoma xenograft; conditions: 60 mg/kg QD; 8 of 9 animals
[14] = system: WM3629 (Class III BRAF mutant) melanoma xenograft; assay: WM3629 melanoma xenograft, Compound 1 with binimetinib QD (Example 3C); format: in vivo, mouse; conditions: 10 mg/kg QD single agent, 14 days
Source text: Mice were assigned to respective groups based on their starting tumor volume and body weight such that the average values were the same for each treatment group.

[15] = 3 mg/kg BID PO 14 days monotherapy

Cc1ccc(NC(=O)N2CC[C@@H](CC(F)(F)F)C2)cc1-c1cc(N[C@H](C)CO)nc(N2CCOCC2)c1 [Compound 1, (S)-N-(3-(2-(((R)-1-hydroxypropan-2-yl)amino)-6-morpholinopyridin-4-yl)-4-methylphenyl)-3-(2,2,2-trifluoroethyl)pyrrolidine-1-carboxamide]
EC50 (pERK in NCI-H2087 cells): 95.4 nM | AUC(0-t) [1]: 11900 to 156000 ng·h/mL | EC50 (pERK in OV-90 cells): 26 nM | EC50 (pERK in NCI-H2405 cells): 10.1 nM | EC50 (pERK in IHH-4 cells): 53.1 nM | EC50 (pERK in CHL-1 cells): 580 nM | tolerability (on-treatment body weight changes) [2]: well tolerated | average weight loss ([3]; 60 mg/kg QD): 5.6% | weight loss of one animal during the course of treatment ([3]; 60 mg/kg cohort, recovered by end of study): > 10% | EC50 (pERK in 8505C cells): 77.1 nM | EC50 (pERK in HMV-II cells): 44.6 nM | EC50 (pERK in Hs 294T cells): 76.9 nM | AUC(0-t) [4]: 2530 to 6750 ng·h/mL | tolerability [5]: well-tolerated | AUC(0-t) ([6]; dosed orally BID (1.5-10 mg/kg)): 4030 to 42100 ng·h/mL | AUC(0-t) ([6]; dosed orally QD (3-20 mg/kg)): 5200 to 53700 ng·h/mL | AUC(0-t) ([7]; 30 mg/kg): 29900 to 96100 ng·h/mL | AUC(0-t) (in vivo; 30 mg/kg): 31100 to 123000 ng·h/mL | tolerability [8]: well-tolerated | EC50 (pERK in DBTRG-05MG cells): 60.5 nM | EC50 (pERK in SK-MEL-28 cells): 107 nM | EC50 (pERK in Calu-6 cells): 200 nM | EC50 (pERK in COLO 800 cells): 99.5 nM | EC50 (pERK in SK-MEL-2 cells): 139 nM | EC50 (pERK in WM3629 cells): 8.8 nM | EC50 (pERK in HCC1195 cells): 83.3 nM | EC50 (pERK in AM-38 cells): 41.4 nM | ΔT/ΔC ([9]; 1.5 mg/kg BID PO 14 days): 34% | ΔT/ΔC [9, 15]: 21% | EC50 ([10]; read-out: Compound 1 7-Day CTG EC50, SK-MEL-2, binimetinib 0 nM (single agent, DMSO control)): 164 nM | EC50 ([10]; read-out: Compound 1 7-Day CTG EC50, SK-MEL-2, binimetinib 2 nM): 108 nM | EC50 ([10]; read-out: Compound 1 7-Day CTG EC50, SK-MEL-2, binimetinib 7.8 nM): 106 nM | EC50 ([10]; read-out: Compound 1 7-Day CTG EC50, SK-MEL-2, binimetinib 31.3 nM): 65 nM | EC50 ([10]; read-out: Compound 1 7-Day CTG EC50, SK-MEL-2, binimetinib 125 nM): 39 nM | EC50 ([10]; read-out: Compound 1 7-Day CTG EC50, SK-MEL-2, binimetinib 500 nM): 12 nM | EC50 (pERK in BxPC-3 cells): 50.7 nM | EC50 (pERK in IPC-298 cells): 267 nM | EC50 (pERK in NCI-H1666 cells): 32.9 nM | average TGI ([11]; 10 mg/kg BID 28 days): 13% | average TGI ([11]; 30 mg/kg BID 28 days): 135% | EC50 (pERK in SK-MEL-30 cells): 95.9 nM | ΔT/ΔC ([12]; 10 mg/kg BID PO 21 days): 15% | ΔT/ΔC ([12]; 15 mg/kg BID PO 21 days): −7% | EC50 (pERK in A-375 cells): 67.7 nM | EC50 (pERK in MIA PaCa-2 cells): 685 nM | EC50 (pERK in CAL-12T cells): 18.4 nM | animals exhibiting tumor regressions [13]: 89%

Cn1cnc2c(F)c(Nc3ccc(Br)cc3F)c(C(=O)NOCCO)cc21 [binimetinib, reference compound]
AUC(0-t) [4]: 5400 to 5730 ng·h/mL | AUC(0-t) ([7]; 3 mg/kg): 7500 to 10100 ng·h/mL | AUC(0-t) (in vivo; 10 mg/kg): 11000 to 26700 ng·h/mL | TGI [9, 15]: 37% | ΔT/ΔC [9, 15]: 63% | Final Tumor Volume ([9]; 3 mg/kg BID PO 14 days monotherapy, mean ± SEM): 910 ± 69 mm^3 | tumor growth inhibition ([11]; 3 mg/kg BID single agent, 28 days): 23% | inhibition of tumor growth [14]: did not lead to significant inhibition of tumor growth
